Laboratory results from PubChem BioAssay (NCI).
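Assay format: 96-well plates, 48-hour exposure. The concentration for full growth arrest is given as TGI.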

How the values were obtained:
Assay in all cases: inhibition of tumour cell growth, NCI panel, 48 h
[1] = tested on: MOLT-4 leukemia
[2] = tested on: OVCAR-8 ovarian
[3] = tested on: SK-MEL-2 melanoma
[4] = tested on: HS 578T breast
[5] = tested on: T-47D breast
[6] = tested on: K-562 leukemia
[7] = tested on: SF-295 CNS
[8] = tested on: PC-3 prostate
[9] = tested on: HL-60(TB) leukemia
[10] = tested on: SR leukemia
[11] = tested on: IGROV1 ovarian
[12] = tested on: UO-31 renal
[13] = tested on: HOP-92 NSCLC
[14] = tested on: HCT-116 colon
[15] = tested on: HCT-15 colon
[16] = tested on: SNB-75 CNS
[17] = tested on: SNB-19 CNS
[18] = tested on: DU-145 prostate
[19] = tested on: RPMI-8226 leukemia
[20] = tested on: M14 melanoma
[21] = tested on: SK-MEL-5 melanoma
[22] = tested on: A498 renal
[23] = tested on: SK-OV-3 ovarian
[24] = tested on: EKVX NSCLC
[25] = tested on: 786-0 renal
[26] = tested on: SF-268 CNS
[27] = tested on: SW-620 colon
[28] = tested on: MDA-MB-435
[29] = tested on: HT29 colon
[30] = tested on: CCRF-CEM leukemia
[31] = tested on: CAKI-1 renal
[32] = tested on: HCC-2998 colon
[33] = tested on: UACC-62 melanoma
[34] = tested on: MCF7 breast
[35] = tested on: U251 CNS
[36] = tested on: MDA-MB-231 breast
[37] = tested on: NCI/ADR-RES ovarian
[38] = tested on: COLO 205 colon
[39] = tested on: KM12 colon
[40] = tested on: A549 NSCLC
[41] = tested on: BT-549 breast
[42] = tested on: OVCAR-4 ovarian
[43] = tested on: NCI-H460 lung
[44] = tested on: OVCAR-5 ovarian
[45] = tested on: HOP-62 NSCLC
[46] = tested on: MDA-N
[47] = tested on: LOX IMVI melanoma
[48] = tested on: ACHN renal
[49] = tested on: SF-539 CNS
[50] = tested on: UACC-257 melanoma
[51] = tested on: OVCAR-3 ovarian
[52] = tested on: TK-10 renal
[53] = tested on: SK-MEL-28 melanoma
[54] = tested on: NCI-H23 lung
[55] = tested on: RXF 393 renal
[56] = tested on: MALME-3M melanoma
[57] = tested on: NCI-H522 lung
[58] = tested on: SN12C renal
[59] = tested on: NCI-H226 lung

In the case of `COc1cc(-c2c[nH]c3ccccc23)nc(-c2c[nH]c3ccccc23)n1`, the TGI [1] is reported as 15.3 µM, the TGI [2] is reported as 19.3 µM and the TGI [3] is reported as 16.2 µM. It also gave a TGI [4] of 68 µM, a TGI [5] of 23.9 µM and a TGI [6] of 17.7 µM. For the same molecule, the TGI [7] was 12.7 µM, the TGI [8] was 9.06 µM and the TGI [9] was 12.9 µM. The TGI [10] was 22.1 µM, the TGI [11] was 13.6 µM and the TGI [12] was 18.1 µM. It also gave a TGI [13] of 8.53 µM, a TGI [14] of 13.6 µM and a TGI [15] of 22.3 µM. It also gave a TGI [16] of 17.7 µM, a TGI [17] of 21 µM and a TGI [18] of 23.9 µM. It also gave a TGI [19] of 10.6 µM, a TGI [20] of 14.8 µM and a TGI [21] of 17.9 µM. For the same molecule, the TGI [22] was 6.58 µM, the TGI [23] was 22.8 µM and the TGI [24] was 19 µM. The TGI [25] was 4.67 µM, the TGI [26] was 30.7 µM and the TGI [27] was 20.3 µM. It also gave a TGI [28] of 18.6 µM, a TGI [29] of 13.4 µM and a TGI [30] of 3.08 µM. For the same molecule, the TGI [31] was 20.7 µM, the TGI [32] was 13 µM and the TGI [33] was 18.6 µM. It also gave a TGI [34] of 14.9 µM, a TGI [35] of 14.9 µM and a TGI [36] of 8 µM. It also gave a TGI [37] of 59.6 µM, a TGI [38] of 20.8 µM and a TGI [39] of 16.2 µM. For the same molecule, the TGI [40] was 12.5 µM, the TGI [41] was 38.4 µM and the TGI [42] was 28.8 µM. The TGI [43] was 12.8 µM, the TGI [44] was 22.1 µM and the TGI [45] was 21 µM. The TGI [46] was 14.2 µM, the TGI [47] was 16.5 µM and the TGI [48] was 8.46 µM. The TGI [49] was 19.8 µM, the TGI [50] was 20.9 µM and the TGI [51] was 19.6 µM. It also gave a TGI [52] of 20.6 µM.
Work on `CC(C)=CCNc1ncnc2c1ncn2CCC(=O)OC(C)(C)C` yielded a TGI [1] of over 100 µM, a TGI [53] of over 100 µM and a TGI [2] of over 100 µM. For the same molecule, the TGI [4] was over 100 µM, the TGI [5] was over 100 µM and the TGI [6] was over 100 µM. The TGI [7] was over 100 µM, the TGI [54] was over 100 µM and the TGI [8] was over 100 µM. For the same molecule, the TGI [9] was over 100 µM, the TGI [10] was over 100 µM and the TGI [11] was over 100 µM. The TGI [12] was over 100 µM, the TGI [13] was over 100 µM and the TGI [14] was over 100 µM. It also gave a TGI [15] of over 100 µM, a TGI [16] of over 100 µM and a TGI [55] of over 100 µM. For the same molecule, the TGI [17] was over 100 µM, the TGI [18] was over 100 µM and the TGI [19] was over 100 µM. For the same molecule, the TGI [20] was over 100 µM, the TGI [21] was 70 µM and the TGI [22] was over 100 µM. For the same molecule, the TGI [56] was over 100 µM, the TGI [23] was over 100 µM and the TGI [25] was over 100 µM. The TGI [26] was over 100 µM, the TGI [27] was over 100 µM and the TGI [28] was over 100 µM. It also gave a TGI [29] of over 100 µM, a TGI [30] of over 100 µM and a TGI [32] of over 100 µM. The TGI [33] was over 100 µM, the TGI [34] was over 100 µM and the TGI [35] was over 100 µM. The TGI [36] was over 100 µM, the TGI [37] was over 100 µM and the TGI [38] was over 100 µM. It also gave a TGI [39] of over 100 µM, a TGI [40] of over 100 µM and a TGI [41] of over 100 µM. For the same molecule, the TGI [42] was 40.4 µM, the TGI [57] was over 100 µM and the TGI [43] was over 100 µM. It also gave a TGI [44] of over 100 µM, a TGI [45] of over 100 µM and a TGI [46] of over 100 µM. For the same molecule, the TGI [47] was over 100 µM, the TGI [48] was over 100 µM and the TGI [58] was over 100 µM. For the same molecule, the TGI [49] was over 100 µM, the TGI [59] was over 100 µM and the TGI [51] was over 100 µM. It also gave a TGI [52] of over 100 µM.
In the case of `Oc1c(Br)cc(Br)cc1CN(Cc1cc(Br)cc(Br)c1O)C1CCCCC1`, the TGI [1] is reported as over 100 µM, the TGI [53] is reported as over 100 µM and the TGI [2] is reported as over 100 µM. The TGI [3] was 45.4 µM, the TGI [4] was 53 µM and the TGI [5] was over 100 µM. The TGI [6] was over 100 µM, the TGI [7] was 72.7 µM and the TGI [54] was 70.4 µM. It also gave a TGI [8] of 50.5 µM, a TGI [10] of over 100 µM and a TGI [11] of over 100 µM. The TGI [12] was over 100 µM, the TGI [13] was over 100 µM and the TGI [14] was over 100 µM. The TGI [15] was over 100 µM, the TGI [16] was 71.5 µM and the TGI [55] was over 100 µM. It also gave a TGI [17] of over 100 µM, a TGI [18] of over 100 µM and a TGI [19] of over 100 µM. It also gave a TGI [20] of over 100 µM, a TGI [21] of 34.6 µM and a TGI [22] of 71.1 µM. It also gave a TGI [56] of 59.8 µM, a TGI [23] of over 100 µM and a TGI [24] of 92.5 µM. It also gave a TGI [25] of over 100 µM, a TGI [26] of 71.9 µM and a TGI [27] of over 100 µM. It also gave a TGI [28] of over 100 µM, a TGI [29] of 64.8 µM and a TGI [31] of over 100 µM. It also gave a TGI [33] of over 100 µM, a TGI [34] of 65 µM and a TGI [35] of 74.9 µM. For the same molecule, the TGI [36] was 72.4 µM, the TGI [37] was over 100 µM and the TGI [38] was 29.2 µM. It also gave a TGI [39] of over 100 µM, a TGI [40] of over 100 µM and a TGI [41] of 90.9 µM. It also gave a TGI [42] of over 100 µM, a TGI [57] of 36.5 µM and a TGI [44] of over 100 µM. It also gave a TGI [45] of 97.5 µM, a TGI [46] of over 100 µM and a TGI [47] of over 100 µM. The TGI [48] was over 100 µM, the TGI [58] was over 100 µM and the TGI [50] was 45.1 µM. It also gave a TGI [59] of over 100 µM, a TGI [51] of 53.8 µM and a TGI [52] of 61 µM.
Work on `O=C1CCC(=O)N1CNc1ccc2c(c1)Sc1ccccc1O2` yielded a TGI [1] of over 100 µM, a TGI [53] of over 100 µM and a TGI [2] of 68.5 µM. The TGI [3] was 40.6 µM, the TGI [4] was over 100 µM and the TGI [5] was over 100 µM. For the same molecule, the TGI [6] was over 100 µM, the TGI [7] was over 100 µM and the TGI [54] was over 100 µM. For the same molecule, the TGI [8] was over 100 µM, the TGI [9] was 54.8 µM and the TGI [11] was over 100 µM. For the same molecule, the TGI [12] was 91.5 µM, the TGI [13] was 56.7 µM and the TGI [14] was 45.7 µM. The TGI [15] was over 100 µM, the TGI [55] was 79.9 µM and the TGI [17] was over 100 µM. It also gave a TGI [18] of over 100 µM, a TGI [19] of over 100 µM and a TGI [20] of 99.2 µM. The TGI [21] was 70.1 µM, the TGI [22] was over 100 µM and the TGI [56] was over 100 µM. For the same molecule, the TGI [24] was 75.4 µM, the TGI [25] was 58.9 µM and the TGI [26] was over 100 µM. It also gave a TGI [27] of over 100 µM, a TGI [28] of over 100 µM and a TGI [29] of 54.7 µM. The TGI [30] was over 100 µM, the TGI [31] was over 100 µM and the TGI [33] was over 100 µM. It also gave a TGI [34] of over 100 µM, a TGI [35] of over 100 µM and a TGI [36] of over 100 µM. The TGI [37] was over 100 µM, the TGI [38] was 35.3 µM and the TGI [39] was over 100 µM. For the same molecule, the TGI [40] was over 100 µM, the TGI [41] was 93.4 µM and the TGI [42] was over 100 µM. For the same molecule, the TGI [57] was 53.6 µM, the TGI [44] was over 100 µM and the TGI [45] was over 100 µM. The TGI [46] was over 100 µM, the TGI [47] was 68.9 µM and the TGI [48] was over 100 µM. The TGI [58] was 76.1 µM, the TGI [49] was 34.7 µM and the TGI [50] was over 100 µM. The TGI [59] was 63.1 µM, the TGI [51] was 75 µM and the TGI [52] was over 100 µM.
